Data on eleven molecules can be found in US7423068B2, “Control of parasitic mites of honey bees” (The United States of America as represented by the …, priority 2001, dated 2008).

The structures appear in SMILES notation. Like-named read-outs stand apart in the source and are kept apart here.

For one data set, the system named is free-running adult mites. The protocol:
2-Heptanone was tested for miticidal activity in two separate sets of bioassays. In the petri dish bioassays we exposed free-running adult mites to volatiles from 2-heptanone either in pure form or in an acrylic block dispenser (as described in a further experiment, below) and measured mortality over time. Mites were placed in petri dishes (5-10 mites/dish, 4 dishes per treatment and 4 dishes for controls) that were lined on the bottom with damp tissue paper covered with Parafilm®. Holes were punched in the Parafilm® using an insect pin to create a humid environment in the petri dish. A piece of filter paper the same size as the petri dish was placed on top of the Parafilm® sheet. In the first petri dish bioassay, 40 μl of pure 2-heptanone was placed on a piece of filter paper on the lid of the petri dish (treatment dishes). The Control dishes were set up as described above but nothing was added to the piece of filter paper fastened to the lid of the petri dish. The petri dishes were placed in separate incubators for treatments and Controls. Incubator temperatures were maintained at 33-34.4° C. […] In the second bioassay 0.1 g of a 30% concentration of 2-heptanone in acrylic block made as in Example 6 was placed in a plastic weighing boat in the center of petri dishes prepared as described above. Control petri dishes were prepared identically to those containing the acrylic block, but the weighing boat in the center of the dish was empty.
In another series of tests, 2-heptanone, 98+% (Sigrma-Aldrich); 3-heptanone (Fluka Chemika); 4-heptanone (Fluka Chemika); 2-hexanone; 2-octanone, 98% (Aldrich Chemical Co.); 1-heptanol (Fluka Chemika, 99.5% GC), and heptaldehyde, 95% (Aldrich Chemical Co.) were tested in petri dish bioassays wherein free-running adult mites were exposed to 40 μl of pure compound placed on filter paper as described above. The test conditions and Controls were as described above.
The test conditions and Controls were as described above.

For data set [1] the following is noted: cited from earlier work.
[2] abbreviates: 40 μl pure compound on filter paper, exposure time 1 hr, S.E. ± 0 unless noted.
Where [3] appears, read: 40 μl pure compound on filter paper, exposure time 2 hrs, S.E. ± 0 unless noted.

With `CCCCC(C)=O` [2-Hexanone], the “% Mortality Treatment” value in the data set with free-running adult mites (40 μl pure compound on filter paper, exposure time 1 hr) was found to be 100%. Consider `CC(C)=O` [Acetone], for which the figures for the “Average % Mortality ± S.E. Treatment” value in the data set with free-running adult mites (setting [2]) and with free-running adult mites (setting [3]) were 48 ± 8.65% and 81.2 ± 12.0%, respectively. Moreover, in data set [1] (in words), the solubility in water result is recorded as “miscible with water”. Take `CCCC(=O)OCC` [Ethyl Butyrate, Ethyl butyrate]: in the data set on free-running adult mites (in vivo), the “Average % Mortality ± S.E. Treatment” value is 81.2 ± 12.0%. Moreover, in data set [1], the solubility in water entry was “about 150 parts water”. Regarding `CCCCCCC=O` [Heptaldehyde], the “% Mortality Treatment” value in the data set with free-running adult mites (in vivo) worked out at 100%.

With `CCC(C)=O` [2-Butanone], the “Average % Mortality ± S.E. Treatment” value is 87.5 ± 7.22% with free-running adult mites (setting [2]) and 77.3 ± 15.6% with free-running adult mites (setting [3]).

With `O=Cc1ccccc1` [Benzaldehyde], the figures for the “Average % Mortality ± S.E. Treatment” value in the data set with free-running adult mites (setting [2]) and in the data set with free-running adult mites (setting [3]) were 55 ± 12.6% and 100%, respectively. Further, the solubility in water entry in data set [1] is “about 350 parts water”. For `CCCCC(=O)CC` [3-Heptanone], the “% Mortality Treatment” value in the data set on free-running adult mites (in vivo) was 100%. As for `CCCC(C)=O` [2-Pentanone], the solubility in water entry in data set [1] (in words) is reported as “almost insoluble in water”. `CCCC(=O)CCC` [4-Heptanone]: the “% Mortality Treatment” value in the data set with free-running adult mites (in vivo) is 100%. Consider `C=C(C)C1CC=C(C)CC1` (single isomer, unassigned; (+)) [d-Limonene, (+)-4-isopropenyl-1-methyl-1-cyclohexene], for which the “Average % Mortality ± S.E. Treatment” value in the data set on free-running adult mites (setting [2]) was found to be 5.0 ± 5.0%; in the data set with free-running adult mites (setting [3]) it was 55.0 ± 9.57%. Consider `CCCCCCC(C)=O` [2-Octanone], for which the “% Mortality Treatment” value in the data set with free-running adult mites (in vivo) was 100%.
